Source: patent US4476122A, “Alkyloximes of 7-amino-thiazolyl-acetamido-cephalosporanic acids” (Roussel Uclaf, priority 1976, dated 1984)
Values after ≈ are worked out from the molar mass of the structure shown. Like-named read-outs stand apart in the source and are kept apart here.

How the values were obtained:
[1] = system: Klebsiella pneumonia 52,145; test: Experimental infection with Klebsiella pneumonia in mice (C); assay type: in vivo; conditions: subcutaneous
Procedure: The activity of the products of Examples 4 and 6 was studied on an experimental infection of Klebsiella pneumonia in mice. Groups of 10 male mice weighing 21 g were infected by an intraperitoneal injection of 0.5 ml of a culture in nutrive media of Klebsiella pneumonia 52,145 diluted by 1/1000 with distilled water. The products were administered subcutaneously 30 minutes, 4, 8, 24 and 32 hours after the injection and the number of dead mice was determined during 10th days.

[2] = system: Salmonella typhimurium 420; test: MIC, liquid medium dilution; assay type: cell-based; conditions: Salmonella enterica
Procedure: (§1) The method used was a dilution of a liquid medium where a series of tubes received the same quantity of a sterile nutritive media and increasing doses of the test compounds were placed therein. Then each tube was seeded with a bacterial strain and was incubated for 24 or 48 hours at 37° C. in an oven. The increasing inhibition was determined by transillumination to determine the minimum inhibiting concentration (MIC in μg/ml) and the results are reported in the following Tables.

[3] = system: Staphylococcus aureus UC 1 128 Pen-Resistant; test: MIC, liquid medium dilution; assay type: cell-based
Procedure: as §1

Providencia Du 48 = test: MIC, liquid medium dilution; assay type: cell-based
Procedure: as §1

[4] = system: Klebsiella pneumoniae Exp. 52 145; test: MIC, liquid medium dilution; assay type: cell-based; conditions: read-out: MIC
Procedure: as §1

[5] = system: Streptococcus pyogenes A 561; test: MIC, liquid medium dilution; assay type: cell-based; conditions: read-out: MIC
Procedure: as §1

[6] = system: Streptococcus faecalis 5 432; test: MIC, liquid medium dilution; assay type: cell-based
Procedure: as §1

[7] = system: Escherichia Coli Sensitive Tetracycline ATCC 9 637; test: MIC, liquid medium dilution; assay type: cell-based
Procedure: as §1

[8] = system: Pseudomonas 3 935 Exp. SG; test: MIC, liquid medium dilution; assay type: cell-based; conditions: 3935EXP.SG
Procedure: as §1

[9] = system: Streptococcus faecalis 99 F 74; test: MIC, liquid medium dilution; assay type: cell-based; conditions: Enterococcus faecalis
Procedure: as §1

[10] = system: Escherichia Coli Exp. TO26 B6; test: MIC, liquid medium dilution; assay type: cell-based
Procedure: as §1

[11] = system: Klebsiella pneumoniae 2 536 Resistant Gentamicine; test: MIC, liquid medium dilution; assay type: cell-based
Procedure: as §1

[12] = system: Proteus vulgaris (indol+) A 232; test: MIC, liquid medium dilution; assay type: cell-based
Procedure: as §1

[13] = system: Escherichia Coli Resistant Tetracycline ATCC 11 303; test: MIC, liquid medium dilution; assay type: cell-based; conditions: read-out: MIC
Procedure: as §1

[14] = system: Escherichia Coli Resistant Gentamicine, Tobramycine R 55 123 D; test: MIC, liquid medium dilution; assay type: cell-based
Procedure: as §1

[15] = system: Bacillus subtilis ATCC 6 633; test: MIC, liquid medium dilution; assay type: cell-based
Procedure: as §1

[16] = system: Serratia Resistant Gentamicine 2 532; test: MIC, liquid medium dilution; assay type: cell-based; conditions: read-out: MIC
Procedure: as §1

[17] = system: Staphylococcus aureus ATCC 6 538 Pen-Sensitive; test: MIC, liquid medium dilution; assay type: cell-based; conditions: read-out: MIC
Procedure: as §1

[18] = system: Proteus mirabilis (indol-) A 235; test: MIC, liquid medium dilution; assay type: cell-based; conditions: read-out: MIC
Procedure: as §1

Enterobacter cloacae 681 = test: MIC, liquid medium dilution; assay type: cell-based
Procedure: as §1

[19] = system: Staphylococcus aureus exp. n° 54 146; test: MIC, liquid medium dilution; assay type: cell-based
Procedure: as §1

[20] = system: Klebsiella pneumonia 52,145; test: Experimental infection with Klebsiella pneumonia in mice (D); assay type: in vivo
Procedure: The activity of the products of Examples 19 and 21 was studied on an experimental infection of Klebsiella pneumonia in mice. Groups of 10 male mice weighing 21.5 g received intraperitoneally 0.5 ml of a 24 hour culture in nutritive media of Klebsiella pneumonia 52,145 diluted by 1/1000 with distilled water. The products were administered subcutaneously 1,5 and 24 hours after the injection and the number of dead mice were determined using 10th days.

Escherichia Coli 69 916 = test: MIC, liquid medium dilution; assay type: cell-based
Procedure: as §1

Escherichia Coli 72 806 = test: MIC, liquid medium dilution; assay type: cell-based
Procedure: as §1

[21] = system: White Staphylococcus 21 976; test: MIC, liquid medium dilution; assay type: cell-based
Procedure: as §1

[22] = system: Pathogenic white Staphylococcus 69 396; test: MIC, liquid medium dilution; assay type: cell-based
Procedure: as §1

Escherichia Coli 68 956 = test: MIC, liquid medium dilution; assay type: cell-based
Procedure: as §1

Escherichia Coli 68 696 = test: MIC, liquid medium dilution; assay type: cell-based
Procedure: as §1

Escherichia Coli 73 316 = test: MIC, liquid medium dilution; assay type: cell-based
Procedure: as §1

Escherichia Coli 69 886 = test: MIC, liquid medium dilution; assay type: cell-based
Procedure: as §1

Escherichia Coli 19 976 = test: MIC, liquid medium dilution; assay type: cell-based
Procedure: as §1

Escherichia Coli 21 976 = test: MIC, liquid medium dilution; assay type: cell-based
Procedure: as §1

[23] = system: Golden Staphylococcus 68 666; test: MIC, liquid medium dilution; assay type: cell-based
Procedure: as §1

SMILES: CO/N=C(\C(=O)NC1C(=O)N2C(C(=O)O)=C(CSc3nnnn3C)CS[C@H]12)c1csc(N)n1 (stereo partly drawn) [Example 4, 7-[{2-(2-amino-4-thiazolyl)-2-methoxyiminoacetyl}amino]-3-[(1-methyl-tetrazol-5-yl)-thiomethyl]-ceph-3-eme-4-carboxylic acid]
- Mice alive on the 10th day ([1]; 5 × 0,1 mg): 9/10
- Mortality after 5 J (number of dead of 10) ([1]; 5 × 0,1 mg): 1
- Mice alive on the 10th day ([1]; 5 × 0,25 mg): 10/10
- MIC ([2]; 24 h): 0.2 µg/mL (≈ 0.391 µM)
- MIC ([2]; 48 h): 0.2 µg/mL (≈ 0.391 µM)
- MIC ([3]; UC1, 24 h): 2 µg/mL (≈ 3.91 µM)
- MIC ([3]; UC1, 48 h): 2 µg/mL (≈ 3.91 µM)
- MIC (Providencia Du 48; DU48, 24 h): 2 µg/mL (≈ 3.91 µM)
- MIC (Providencia Du 48; DU48, 48 h): 2 µg/mL (≈ 3.91 µM)
- MIC ([4]; EXP.52145, 24 h): 0.02 µg/mL (≈ 0.0391 µM)
- MIC ([4]; EXP.52145, 48 h): 0.02 µg/mL (≈ 0.0391 µM)
- MIC ([5]; A561, 24 h): ≤ 0.02 µg/mL
- MIC ([5]; A561, 48 h): ≤ 0.02 µg/mL
- MIC ([6]; Enterococcus faecalis, 5432, 24 h): 2 µg/mL (≈ 3.91 µM)
- MIC ([6]; Enterococcus faecalis, 5432, 48 h): 2 µg/mL (≈ 3.91 µM)
- MIC ([7]; ATCC9, 24 h): 0.4 µg/mL (≈ 0.782 µM)
- MIC ([7]; ATCC9, 48 h): 0.4 µg/mL (≈ 0.782 µM)
- MIC ([8]; 24 h): 20 µg/mL (≈ 39.1 µM)
- MIC ([8]; 48 h, read-out: MIC): 40 µg/mL (≈ 78.2 µM)
- MIC ([9]; 99F74, 24 h): 2 µg/mL (≈ 3.91 µM)
- MIC ([9]; 99F74, 48 h, read-out: MIC): 10 µg/mL (≈ 19.5 µM)
- MIC ([10]; 24 h): 0.2 µg/mL (≈ 0.391 µM)
- MIC ([10]; 48 h): 0.2 µg/mL (≈ 0.391 µM)
- MIC ([11]; 24 h): 0.4 µg/mL (≈ 0.782 µM)
- MIC ([11]; 48 h, read-out: MIC): 0.6 µg/mL (≈ 1.17 µM)
- MIC ([12]; 24 h, read-out: MIC): 3 µg/mL (≈ 5.86 µM)
- MIC ([12]; 48 h): 20 µg/mL (≈ 39.1 µM)
- MIC ([13]; ATCC11, 24 h): 0.05 µg/mL (≈ 0.0977 µM)
- MIC ([13]; ATCC11, 48 h): 0.05 µg/mL (≈ 0.0977 µM)
- MIC ([14]; 24 h): 0.2 µg/mL (≈ 0.391 µM)
- MIC ([14]; 48 h): 0.2 µg/mL (≈ 0.391 µM)
- MIC ([15]; ATCC6, 24 h): 2 µg/mL (≈ 3.91 µM)
- MIC ([15]; ATCC6, 48 h, read-out: MIC): 5 µg/mL (≈ 9.77 µM)
- MIC ([16]; 24 h): 1 µg/mL (≈ 1.95 µM)
- MIC ([16]; 48 h): 1 µg/mL (≈ 1.95 µM)
- MIC ([17]; ATCC6, 24 h): 1 µg/mL (≈ 1.95 µM)
- MIC ([17]; ATCC6, 48 h): 1 µg/mL (≈ 1.95 µM)
- MIC ([18]; 24 h): 0.05 µg/mL (≈ 0.0977 µM)
- MIC ([18]; 48 h): 0.05 µg/mL (≈ 0.0977 µM)
- MIC (Enterobacter cloacae 681; Enterobacter cloacae, 681, 24 h): 20 µg/mL (≈ 39.1 µM)
- MIC (Enterobacter cloacae 681; Enterobacter cloacae, 681, 48 h): 20 µg/mL (≈ 39.1 µM)
- MIC ([19]; 24 h): 2 µg/mL (≈ 3.91 µM)
- MIC ([19]; 48 h): 2 µg/mL (≈ 3.91 µM)

SMILES: CO/N=C(\C(=O)NC1C(=O)N2C(C(=O)O)=C(CSC(C)=O)CSC12)c1csc(N)n1 (stereo not drawn) [Example 21, sodium 3-acetylthiomethyl-7-[{2-(2-amino-4-thiazolyl)-2-methoxyiminoacetyl}amino]-ceph-3-eme-4-carboxylate]
- Mice alive on the 10th day ([20]; subcutaneous, 0,1 mg): 9/10
- Mortality after 4eJ (number of dead of 10) ([20]; subcutaneous, 0,1 mg): 1
- Mice alive on the 10th day ([20]; subcutaneous, 0,05 mg): 9/10
- Mortality after 73H 15 (number of dead of 10) ([20]; subcutaneous, 0,05 mg): 1
- Mice alive on the 10th day ([20]; subcutaneous, 0,5 mg): 10/10
- Mice alive on the 10th day ([20]; subcutaneous, 0,25 mg): 10/10
- Mice alive on the 10th day ([20]; subcutaneous, 1 mg): 10/10
- MIC (Escherichia Coli 69 916; COLI69916, 24 h): 0.4 µg/mL
- MIC (Escherichia Coli 69 916; COLI69916, 48 h): 0.4 µg/mL
- MIC (Escherichia Coli 72 806; COLI72806, 24 h): 1 µg/mL
- MIC (Escherichia Coli 72 806; COLI72806, 48 h): 1 µg/mL
- MIC ([21]; 24 h): 3 µg/mL
- MIC ([21]; 48 h): 5 µg/mL
- MIC ([22]; 24 h): 2 µg/mL
- MIC ([22]; 48 h): 2 µg/mL
- MIC (Escherichia Coli 68 956; COLI68956, 24 h): 0.4 µg/mL
- MIC (Escherichia Coli 68 956; COLI68956, 48 h): 0.4 µg/mL
- MIC (Escherichia Coli 68 696; COLI68696, 24 h): 0.4 µg/mL
- MIC (Escherichia Coli 68 696; COLI68696, 48 h): 0.4 µg/mL
- MIC (Escherichia Coli 73 316; COLI73316, 24 h): 0.2 µg/mL
- MIC (Escherichia Coli 73 316; COLI73316, 48 h): 0.2 µg/mL
- MIC (Escherichia Coli 69 886; COLI69886, 24 h, read-out: MIC): 0.6 µg/mL
- MIC (Escherichia Coli 69 886; COLI69886, 48 h): 1 µg/mL
- MIC (Escherichia Coli 19 976; COLI19976, 24 h, read-out: MIC): 0.6 µg/mL
- MIC (Escherichia Coli 19 976; COLI19976, 48 h): 0.6 µg/mL
- MIC (Escherichia Coli 21 976; COLI21976, 24 h, read-out: MIC): 0.6 µg/mL
- MIC (Escherichia Coli 21 976; COLI21976, 48 h): 0.6 µg/mL
- MIC ([23]; 24 h): 3 µg/mL
- MIC ([23]; 48 h): 5 µg/mL
